The values that follow come from patent US11879137B2, “Treatment of type 1 diabetes and autoimmune diseases or disorders” (THE CHILDREN'S MEDICAL CENTER CORPORATION, priority 2017, dated 2024).

Molecules are shown by their SMILES.

One test relates to CD34+ cells. Description: Transwell migration assay toward SDF-1. Format: cell-based, human. As to conditions: SDF-1, 2 hours. How it is done:
Migration assay. Transwell migration assays were performed on PGE2-modulated HSPCs compared to unmodulated HSPCs in the presence of 0 to 50 ng/ml SDF-1 (R&D Systems, Minneapolis, MN). In brief, cells were suspended in 0.5% BSA Phenol Red-Free RPMI and plated in the upper chambers of an HTS-Transwell-96-well permeable support plate (Corning, Acton, MA) and incubated at 37° C. in 5% CO2 for 2 hours. After 2 hours incubation, migrated cells were counted using BD TruCount (BD Biosciences) by flow cytometry.
(§1) Prostaglandin library screening. PGE2 has been described as a small molecule known to enhance the homing and engraftment of HSPCs. It was therefore sought to screen all known types of prostaglandins using the Prostaglandin Screening Library II, which contains 64 small molecules. Each small molecule contained in the library was first screened for its capacity to upregulate PD-L1 in human CD34+ cells isolated from T1D patients (FIG. 17A-17B). CD34+ cells isolated from T1D patients were cultured in StemSpan SFEMII and pulsed with each PG (prostaglandin) small molecule contained in the aforementioned library at a concentration of 10 μM at 24 and 48h. Using FACS analysis, the MFI (mean fluorescence intensity) of PD-L1 expression was calculated following treatment with each small molecule used to modulate CD34+ cells as compared to untreated/unmodulated CD34+ cells (FIG. 17B). […]

Another test deals with PD-L1 on CD34+ cells. The experiment in a line: Confocal imaging of PD-L1 on PGE2-treated CD34+ cells. Format: cell-based, human. The settings on record: vs untreated CD34+ cells. How it is done: Immunofluorescence and confocal microscopy. Regulatory CD34+(PGE2-modulated) cells and unmodulated CD34+ cells isolated from peripheral blood of healthy controls were fixed in 4% PFA for 1h at 4 C, washed 3 times for 20 min in PBS, and cells were counterstained with blue fluorescent DAPI (1:10000, BioLegend, San Diego, CA) and anti-human PD-L1 (BD Biosciences). Cells were photographed under a 63× objective. Images were captured on a Leica SPSX system with an upright DM6000 microscope and AIR confocal microscope (Nikon Instruments, Melville, NY). Histology was evaluated by at least two expert pathologist (9).
as §1, with “CD34+ cells isolated from T1D patients were cultured in StemSpan SFEMII and pulsed with each PG (prostaglandin) small molecule contained in the aforementioned library at a concentration of 10 μM at 24 and 48h.” left out

For the compound `CCCCC[C@H](O)/C=C/[C@H]1[C@H](O)CC(=O)[C@@H]1C/C=C\CCCC(=O)O` [PGE2, prostaglandin E2], in the test on CD34+ cells, the “homing potential in migration assay” value is recorded as “substantial increase”. The “PD-L1 surface expression by confocal imaging” value in the test with PD-L1 on CD34+ cells was “upregulated”.
